In patent US20120264928A1, “THERAPEUTIC PHARMACEUTICAL AGENT FOR DISEASES ASSOCIATED WITH DECREASE IN FUNCTION OF GNE PROTEIN, FOOD COMPOSITION, AND FOOD ADDITIVE” (JAPAN HEALTH SCIENCES FOUNDATION, priority 2009, published 2012):

Columns and labels:
Format in all cases: in vivo
[1] = tested on: DMRV model mice; test: Pathological observation of muscle tissue
Procedure: (§1) 20 mg/kg body weight/day of ManNAc (N=6), NeuAc (N=5), or sialyllactose (N=7) dissolved in drinking water was administered to the DMRV model mice between 11- to 15-week old and 56- to 58-week old for 43 to 45 weeks. 40 mg (N=5) or 400 mg/kg body weight/day (N=4) of Ac4ManNAc dissolved in drinking water was administered to the DMRV model mice of the same ages for 43 to 47 weeks. Drinking water free of the pharmaceutical agents was supplied to mice in a placebo group.
(§2) During the administration of the pharmaceutical agent, the measurement of the body weight, the determination of the survival rate, blood collection (0, 25, and 49 days after the start of administration, and thereafter at intervals of 28 days), and a hanging test (0 and 49 days after the start of administration, and thereafter at intervals of 56 days) were performed at regular intervals. Survivors after the administration (ManNAc-treated group: N=5, NeuAc-treated group: N=5, sialyllactose group: N=6) were subjected to a treadmill test. A muscle tissue was then excised and was subjected to a muscle contraction test, the measurement of the amount of NeuAc, and pathological observation.
The gastrocnemius muscle used in the muscle contraction test was frozen in isopentane cooled by liquid nitrogen, and a frozen section having a thickness of 6 μm was prepared with a cryostat. The section was placed on a slide glass. Hematoxylin-eosin (H-E) staining, acid phosphatase activity staining (see Malicdan et al., Method. Enzymol., 453, 379-396, 2009), or Gomori trichrome staining (see Malicdan et al., Method. Enzymol., 453, 379-396, 2009) were performed on adjacent sections. These sections were observed under an optical microscope. A frozen section having a thickness of 10 μm prepared in the same manner as described above was fixed with 4% paraformaldehyde, was stained with congo red, and was observed under a fluorescence microscope.
A frozen section having a thickness of 6 μm prepared in the same manner as described above was fixed with acetone and was blocked with a blocking solution (PBS containing 5% goat normal sera or 2% casein). The section was incubated with an anti-autophagy marker protein LC3 rabbit polyclonal antibody (NB100-2220, Novus Biologicals, 100 times dilution), an anti-β-amyloid rabbit polyclonal antibody (Aβ1-40, AB5074P, Chemicon, 100 times dilution), an anti-β-amyloid rabbit polyclonal antibody (Aβ1-42, AB5078P, Chemicon, 100 times dilution), an anti-phosphorylated tau mouse monoclonal antibody (90206, Innogenetics, 100 times dilution), an anti-amyloid mouse monoclonal antibody (6E10, Covance, 400 times dilution), an anti-p62 protein rabbit polyclonal antibody (PW9860, Biomol, 500 times dilution), or an anti-lysosome-associated membrane protein 2 (Lamp 2) rabbit polyclonal antibody (ABL-93, obtained from Developmental Studies Hybridoma Bank at the University of Iowa, 100 times dilution) at room temperature for one hour. If necessary, Alexa Fluor 488 or 568 labeled anti-rabbit/mouse IgG(H+L) (Molecular Probes) was used as a secondary antibody. Immunostained preparations of these sections were observed under a fluorescence microscope. The congo red staining and the LC3 labeling were performed on adjacent sections.
It is known that rimmed vacuoles found in muscle tissues of a patient suffering from myopathy are positive for acid phosphatase. […] Tau protein is phosphorylated with amyloid β-protein. In myopathy caused by a mutation of the GNE gene, it is known that lysosomal vesicles that contain localized Lamp 2 protein are accumulated. It is also known that p62 protein recognizes polyubiquitin protein and directly binds to LC3 to induce autophagy in a portion that contains accumulated polyubiquitinated protein. In a muscle tissue affected by myopathy, p62 protein is colocalized with amyloid.

[2] = tested on: DMRV model mice; test: Treadmill test, motor ability test; conditions: vs placebo group
Procedure: as §1, §2
In order to familiarize a mouse with the apparatus, training was started one week prior to testing. In this period, the mouse was made to run on a slope of 7 degrees at a velocity in the range of 5 to 15 m/min for 30 minutes every day for 7 days. As a motor ability test, the velocity was increased by 10 m/min per minute from the initial velocity of 20 m/min. The accumulated running distance up to the point where the mouse could not run anymore was measured. As an endurance test, a mouse was made to run on a slope of 7 degrees at a velocity of 20 m/min for 60 minutes. The mouse was then made to run for another 3 minutes, during which the times of the electrical stimulation given to the mouse by a stimulation grid disposed at the end of the running lane were measured.

[3] = tested on: DMRV model mice; test: Blood creatine kinase activity; conditions: 20 mg/kg body weight/day in drinking water; vs placebo group
Procedure: as §1, §2
During the administration of the pharmaceutical agent, blood was collected from a tail of a mouse at regular intervals. The blood was centrifuged to prepare blood serum. Blood creatine activity was measured with a Determiner CPK-L kit (Kyowa Medex Co., Ltd.). The blood serum was electrophoresed using a Titan Gel Isoenzyme kit (Helen Laboratories) to identify creatine kinase. It is known that creatine kinase moves into blood when strenuous exercise or myopathy damages muscle fibers.

[4] = tested on: DMRV model mice; test: Number of formed rimmed vacuoles and amyloid-positive cells; conditions: 20 mg/kg body weight/day in drinking water; vs placebo group
Procedure: as §1, §2
In six H-E stained pathological sections having a thickness of 10 μm prepared at intervals of 100 μm, the number of rimmed vacuoles observed over the cross section of the muscular tissue was counted. In order to count the number of amyloid-positive protein deposits, the number of cells having deposits labeled with an anti-amyloid antibody (6E10) observed over the cross section of the muscular tissue was counted in six sections having a thickness of 10 μm prepared at intervals of 100 μm.

[5] = 20 mg/kg body weight/day in drinking water
[6] = 20 mg/kg body weight/day in drinking water, vs placebo group

## CC(=O)N[C@@H]1C(OC(C)=O)O[C@H](COC(C)=O)[C@@H](OC(C)=O)[C@@H]1OC(C)=O (some centres unmarked) [Ac4ManNAc, Tetra-O-acetyl-N-acetylmannosamine]
[1]; 40 mg/kg
  Aβ1-42 labeling: negative
  Lamp 2 staining: very slightly stained
  acid phosphatase activity staining: dispersed sites that were positive
  p62 protein labeling: negative
[1]; 40 mg/kg, vs placebo group
  frequencies of rimmed vacuoles and muscular atrophy: much lower
[1]; 400 mg/kg
  Aβ1-42 labeling: negative
  Lamp 2 staining: negative
  acid phosphatase activity staining: negative
  p62 protein labeling: negative
  rimmed vacuoles and muscle cell atrophy: no rimmed vacuole or muscle cell atrophy
[2]; 400 mg/kg
  accumulated running distance: significantly higher

## CC(=O)N[C@@H]1C(O)O[C@H](CO)[C@@H](O)[C@@H]1O (some centres unmarked) [ManNAc, N-acetylmannosamine, reference compound]
[3]
  blood creatine kinase activity: significantly lower
[4]
  number of amyloid positive cells: significantly lower
  number of rimmed vacuoles: significantly lower
[1]; [5]
  acid phosphatase activity staining: negative
  congo red staining (amyloid): only the placebo group was fluorescently labeled
  labeling with the anti-phosphorylated tau antibody: Only the placebo group was also labeled
  rimmed vacuoles and muscle cell atrophy (H-E staining): no rimmed vacuole or muscle cell atrophy
[1]; [6]
  labeling with the anti-amyloid antibodies (LC3, Aβ1-40, and Aβ1-42): markedly reduced
[2]; [5]
  accumulated running distance: significantly higher

## CC(=O)N[C@H]1[C@H]([C@H](O)[C@H](O)CO)OC(O)(C(=O)O)C[C@@H]1O (some centres unmarked) [NeuAc, N-acetylneuraminic acid]
[3]
  blood creatine kinase activity: significantly lower
[4]
  number of amyloid positive cells: significantly lower
  number of rimmed vacuoles: significantly lower
[1]; [5]
  acid phosphatase activity staining: negative
  congo red staining (amyloid): only the placebo group was fluorescently labeled
  labeling with the anti-phosphorylated tau antibody: Only the placebo group was also labeled
  rimmed vacuoles and muscle cell atrophy (H-E staining): no rimmed vacuole or muscle cell atrophy
[1]; [6]
  labeling with the anti-amyloid antibodies (LC3, Aβ1-40, and Aβ1-42): markedly reduced
[2]; [5]
  accumulated running distance: significantly higher

## CC(=O)N[C@H]1[C@H]([C@H](O)[C@H](O)CO)O[C@@](O[C@H]2[C@@H](O)[C@@H](CO)O[C@@H](O[C@H]3[C@H](O)[C@@H](O)C(O)O[C@@H]3CO)[C@@H]2O)(C(=O)O)C[C@@H]1O (some centres unmarked) [sialyllactose, NeuAcα2-3Galβ1-4Glc]
[3]
  blood creatine kinase activity: significantly lower
[4]
  number of amyloid positive cells: significantly lower
  number of rimmed vacuoles: significantly lower
[1]; [5]
  acid phosphatase activity staining: negative
  congo red staining (amyloid): only the placebo group was fluorescently labeled
  labeling with the anti-phosphorylated tau antibody: Only the placebo group was also labeled
  rimmed vacuoles and muscle cell atrophy (H-E staining): no rimmed vacuole or muscle cell atrophy
[1]; [6]
  labeling with the anti-amyloid antibodies (LC3, Aβ1-40, and Aβ1-42): markedly reduced
[2]; [5]
  accumulated running distance: significantly higher
